In article PMC6395926, “Mass Balance and Drug Interaction Potential of Intravenous Eravacycline Administered to Healthy Subjects” (Antimicrobial Agents and Chemotherapy, 2019):
“Also recorded” adds a separate entry of the source. Read-outs that look alike come from different tables or passages of the source.

Tests used:
[1] = Drug interaction study with rifampin (CYP3A4 inducer): plasma PK of i.v. eravacycline and metabolites; assay type: in vivo, human; settings: in vivo
Protocol: Two single-center, open-label studies were conducted to evaluate the effects of itraconazole (CYP3A4 inhibitor) and rifampin (CYP3A4 inducer) on the pharmacokinetics of i.v. eravacycline in healthy subjects.
(ii) Study design. Each study included a 28-day screening period, a 13-day treatment period (19 days for rifampin), and an end-of-study visit 2 weeks after the last dose of study drug. […] For the itraconazole study, 200 mg oral itraconazole was administered q12h on day 8 and q24h on days 9 and 10. For the rifampin study, 600 mg oral rifampin was administered q24h from day 8 to day 17. All study treatments were administered in the fasting state.
(§1) (iii) Study assessments. Blood samples for PK analysis of eravacycline and its metabolites, TP-498, TP-6208, and TP-034, were collected predose and 1, 2, 4, 6, 8, 12, 24, 36, and 48 h after the start of the i.v. infusion on day 1 and day 10 (itraconazole) or day 1 and day 17 (rifampin). Safety assessments included AEs, clinical laboratory safety tests (hematology, serum chemistry, electrolytes, coagulation, urinalysis, and lipid profile), vital signs, physical examinations, and 12-lead ECG.
Concentrations of eravacycline, TP-498, and TP-6208 in human plasma samples were measured by LC-tandem MS after solid-phase extraction over a calibration range of 5.00 to 500 ng/ml. The LLOQ for eravacycline, TP-498, TP-6208, and TP-034 in human plasma was 5.00 ng/ml. Samples with eravacycline initial concentrations above the upper limit of quantification (500 ng/ml) were diluted appropriately with control blank human plasma and reanalyzed. There was no interference seen when human plasma was fortified with eravacycline, TP-498, TP-6208, and either itraconazole or rifampin.
(iv) Pharmacokinetic analysis. PK assessments included Cmax, Tmax, AUC0–24, AUC0–t, t1/2, CL, and Vss. Actual sampling time was used for PK calculations. PK parameters were derived by noncompartmental analysis. Descriptive statistics were calculated for analyte concentrations at each evaluation time point and for all quantitative PK parameters of eravacycline, TP-498, TP-6208, and TP-034 for day 1 and day 10 (day 17 for rifampin). The effect of itraconazole or rifampin on the PK profile of i.v. eravacycline was evaluated by comparing log-transformed PK parameters (Cmax and AUC0–t) associated with the administration of study drug on day 1 and day 10 (itraconazole) or day 1 and day 17 (rifampin) using paired t tests. The ratio and 90% confidence interval (CI) were presented after back transformation to the original scale. Pharmacokinetic variables were calculated using WinNonlin Professional.

[2] = Mass balance study: plasma PK of eravacycline, TP-498 and TP-6208 (LC-MS); assay type: in vivo, human; settings: in vivo, iv
Source text: (ii) Study design. This was a single-center, open-label study of a single i.v. dose of [^14C]eravacycline to assess the mass balance recovery and PK of eravacycline. The primary objectives were to determine mass balance recovery, determine routes and rates of excretion, provide metabolite profiling and structural identification, and assess the PK of radioactivity in plasma and whole blood. Subjects were screened for inclusion in the study, including a detailed medical history, physical examination, and laboratory evaluations, in the 28 days before dosing. Eligible subjects were admitted to the clinical study unit at approximately 21:00 on the evening prior to study drug administration (day −1) and remained on site until 240 h postdose for collection of urine, feces, and blood samples. After an overnight fast, each subject received 60 mg [^14C]eravacycline containing not more than 3.8 MBq (105 μCi) ^14C as a single i.v. infusion over 60 min.
(vi) Study assessments. PK parameters were determined for total radioactivity in plasma and whole blood. Eravacycline, TP-498, and TP-6208 concentrations in plasma were quantified using a validated assay with internal standards. The following PK parameters were determined: Cmax, Tmax, time from dosing before the first quantifiable concentration in a concentration versus time profile (Tlag), AUC0–t, AUC0–24, AUC0–∞, the percentage of AUC0–∞ extrapolated beyond the time of the last measurable concentration (AUC%extrap), the slope of the apparent terminal phase (lambda-z), the apparent terminal half-life (t1/2), the mean residence time estimated between time zero and infinity (MRT0-∞), the apparent volume of plasma cleared of analyte per unit time (CL), and the volume of distribution of analyte at steady state (Vss).
Plasma concentrations of eravacycline, TP-498, and TP-6208 were measured by liquid chromatography with tandem mass spectrometry (LC-MS). The LLOQ was 5 ng/ml for eravacycline, TP-498, and TP-6208. The calibration ranges for eravacycline, TP-498, and TP-6208 in human urine were 50 to 10,000 ng/ml, 50 to 1,000 ng/ml, and 20 to 1,000 ng/ml, respectively. The calibration ranges for eravacycline, TP-498, and TP-6208 in human plasma were 5 to 500 ng/ml.
(viii) Study analysis. Descriptive statistics (mean, median, standard deviation [SD], percent coefficient of variation [%CV], minimum, maximum, number, geometric mean, and geometric %CV) were calculated for all concentration data. Pharmacokinetic parameters were calculated using Phoenix WinNonlin v6.3 (Certera USA, Inc.).

[3] = in vitro; previous studies, no reference given; cited from earlier work
[4] = parameters: species or system human; settings: human, in vivo
Protocol: as §1

[5] = Itraconazole drug interaction study: safety/tolerability; assay type: in vivo, human; settings: itraconazole treatment period, 3 of 11 subjects
Protocol: as §1

| SMILES | Mean Cmax and AUC0–24 when eravacycline was dosed with or without rifampin [1] | CLR ([2]; human) [mL/min] | Cmax ([2]; human) [ng/mL] | geometric mean AUC0–t, fold lower than that of eravacycline ([2]; human) [fold] | geometric mean Cmax, fold lower than that of eravacycline ([2]; human) [fold] | time postdose plasma concentrations were quantifiable [2] [h] | antimicrobial activity [3] | subjects who experienced an AE [4] [%] | subjects who experienced an AE [5] [%] | AUC0–∞ ([2]; human) | geometric mean AUC0–∞, fold lower than that of eravacycline ([2]; human) [fold] | t1/2 ([2]; human) |
| --- | --- | --- | --- | --- | --- | --- | --- | --- | --- | --- | --- | --- |
| CN(C)[C@H]1C(O)=C(C(N)=O)C(=O)[C@@]2(O)C(O)=C3C(=O)c4c(O)c(NC(=O)CN5CCCC5)cc(F)c4C[C@H]3C[C@@H]12 [TP-498] | similar | 85.7 ± 35.5 | 20.4 ± 18.9 | 13.5 | 53.9 | 37 to 49 | no in vitro antimicrobial activity; also recorded: None exhibit antimicrobial activity |  |  |  |  |  |
| CO[C@H]1/C=C/O[C@@]2(C)Oc3c(C)c(O)c4c(O)c(c(/C=N/N5CCN(C)CC5)c(O)c4c3C2=O)NC(=O)/C(C)=C\C=C\[C@H](C)[C@H](O)[C@@H](C)[C@@H](O)[C@@H](C)[C@H](OC(C)=O)[C@@H]1C [rifampin, reference compound] |  |  |  |  |  |  |  | 8.3 |  |  |  |  |
| CCC(C)n1ncn(-c2ccc(N3CCN(c4ccc(OCC5COC(Cn6cncn6)(c6ccc(Cl)cc6Cl)O5)cc4)CC3)cc2)c1=O (centres unmarked) [itraconazole, reference compound] |  |  |  |  |  |  |  |  | 27.3 |  |  |  |
| CN(C)[C@@H]1C(=O)C(C(N)=O)=C(O)[C@@]2(O)C(=O)C3=C(O)c4c(O)c(N5C(=O)CN6CCCC65)cc(F)c4C[C@H]3C[C@@H]12 (some centres unmarked) [TP-6208] |  |  | 42.8 ± 28.9 | 2.9 | 25.7 | 49 to 73 | no in vitro antimicrobial activity; also recorded: None exhibit antimicrobial activity |  |  | 1780 ± 26.9 (n = 2) h·ng/ml | 2.5 | 18.8 ± 17.8 (n = 2) h |
